Source: patent US12129235B2, “TSPO binders” (The University Court of the University of Glasgow, priority 2018, dated 2024)

Experiments:
TSPO [1] = biological target: T1, TSPO (Rattus norvegicus, UniProt P16257); assay: ^18F-LW223 PET blocking and displacement with PK11195 (1 mg/kg) in rats; format: in vivo; set-up: from tissue; host or cells: living Sprague-Dawley rats (brain, heart, lungs and other organs); conditions: for reduction of radiotracer binding post-blocking / VT post-blocking: PK11195 1 mg/kg; for displacement from target sites at equilibrium time point: PK11195 1 mg/kg after 60 min; for VT post-blocking: mean±SEM, n=3
Procedure: 13 PET scans were performed with ^18F-LW223 (mean injected radioactivity of 19.55±2.1 MBq). Scans were acquired following i.v. bolus injection of ^18F-LW223 via tail vein or femoral vein shunt (invasive kinetic modelling experiments with β-probe automatic blood sampler) in rats. Test-retest scans were obtained in three rats following i.v. bolus of the radiotracer, with two weeks interval between test and retest imaging sessions. […] These scans were compared to baseline scans where no PK11195 was used. For displacement studies, rats received i.v. administration of ^18F-LW223 and scanned continuously for 120 min. […] A male and female mouse were initially used to derive the dosimetry estimates for ^18F-LW223 over a 4 h dynamic scan, followed by additional mice in a further study (in a study with a mean injected radioactivity of 10.83±5.6 MBq).
All PET data were acquired using a preclinical PET/CT small animal scanner (nanoPET/CT, Mediso, Hungary). A CT scan (semi-circular full trajectory, maximum field of view, 480 projections, 50 kVp, 300 ms and 1:4 binning) was acquired for attenuation correction. Immediately following radiotracer administration, a 120 minutes emission scan was obtained using 3-dimentional 1:5 mode and re-binned as follows: 18×10 s; 2×30 s; 1×60 s; 2×2 min; 10×5 min; 6×10 min. PET images were reconstructed using Mediso's iterative Tera-Tomo 3D reconstruction algorithm and the following settings: 4 iterations, 6 subsets, full detector model, low regularization, spike filter on, voxel size 0.4 mm and 400-600 keV energy window. PET data were corrected for randoms, scatter and attenuation.
Image Processing and Data Analysis Reconstructed scans were imported into PMOD 3.8 software (PMOD Technologies, Switzerland). Volumes of interest (VOIs) were manually drawn around organs of interest. Time-activity curves (TACs) were generated and standardized uptake values (SUVs) calculated as concentration in the VOI divided by injected dose divided by animal weight. Kinetic modelling was performed using compartmental analysis (1-Tissue (1T) and 2-Tissue (2T) models) and graphical analysis (Logan plot and Ichise multivariate analysis) to estimate the volume of distribution (VT) in different tissues (Innis et al.; Logan; and Ichise et al.). Model fitting performance was evaluated using the Akaike information criterion (AIC) and the model selection criterion (MSC), where the preferred model had the lowest AIC and highest MSC. The selected identifiability criterion was the percentage standard error (% SE) of VT estimates. Kinetic modeling was also performed using graphical analysis to estimate the distribution volume ratio (DVR) in tissue regions and organs where the reference region VOI was the blood pool VOI in the left ventricle (Logan et al.).

TSPO [2] = biological target: T1, TSPO; assay: ^18F-LW223 PET/CT in rat model of myocardial infarction; format: in vivo, rats; set-up: from tissue; host or cells: living Sprague-Dawley rats (brain, heart, lungs and other organs); conditions: heart, brain and lungs; 7 days after myocardial infarction
Text: Rats underwent permanent of ligation of the left anterior descending coronary artery to induce myocardial infarction and after 7 days were imaged using ^18F-LW223 PET/CT (see FIG. 11). Naive rats were used as a healthy control for comparison. […] This indicates a myocardial infarction mediated increase in expression of TSPO within these organs which may also be interpreted as increased systemic inflammation.

TSPO [3] = biological target: TSPO (Homo sapiens, UniProt P30536); assay: ^18F-LW223 human autoradiography (stroke and diseased coronary tissue); format: binding; set-up: Paraffin embedded human deep brain stoke tissue and diseased coronary tissue sections; from tissue; host or cells: human deep brain stroke tissue and diseased coronary tissue sections
Text: Slides were washed twice with buffer before being air dried and exposed to a Fujifilm BAS-IP MS 2040 phosphor screen (Fujifilm, Japan). Phosphor screens were imaged on a Fujifilm FLA5100 imaging plate reader (Fujifilm, Japan). Global regions of interest were drawn around whole tissue sections to calculate % SB. To calculate target:non-target ratios, regional sampling analysis was used within the same tissue in the highest and lowest uptake areas.

TSPO (Homo sapiens, UniProt P30536), sequence (P30536 whole entry): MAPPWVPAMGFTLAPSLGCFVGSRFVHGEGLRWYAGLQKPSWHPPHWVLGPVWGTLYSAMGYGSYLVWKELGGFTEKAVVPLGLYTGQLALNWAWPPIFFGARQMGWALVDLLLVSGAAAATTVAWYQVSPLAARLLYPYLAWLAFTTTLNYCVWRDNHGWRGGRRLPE

## CC[C@@H](C)N(C)C(=O)c1nc2ccccc2c(-c2ccccc2)c1C[18F] [^18F-LW223, (R)-(N-sec-Butyl)-3-[19-fluoro]-methyl-N-methyl-4-phenylquinoline-2-carboxamide]
TSPO [1]; PK11195 1 mg/kg prior to tracer
  reduction on the SUV values post-blocking compared with baseline: 64-81%
TSPO [1]; brain
  reduction of radiotracer binding post-blocking: 12%
  displacement from target sites at equilibrium time point: 29%
TSPO [1]; heart
  reduction of radiotracer binding post-blocking: 35%
  displacement from target sites at equilibrium time point: 52%
  VT post-blocking: 6.19±0.38
TSPO [1]; lungs
  reduction of radiotracer binding post-blocking: 56%
  displacement from target sites at equilibrium time point: 40%
  VT post-blocking: 2.27±0.07
TSPO [2]
  SUV relative to the blood pool versus naive rats: increase
TSPO [3]; deep brain stroke tissue, blocking with PK11195 30 μM
  blocking of ^18F-LW223 binding: could not be sufficiently blocked
TSPO [3]; diseased coronary tissue
  target:non-target ratio: 4.5
TSPO [3]; diseased coronary tissue, blocking with LW223 10 μM
  % specific binding (% SB): 88.1±3.4%
TSPO [3]; diseased coronary tissue, blocking with PK11195 10 μM
  % specific binding (% SB): 75.3±3.2%
TSPO [3]; stroke tissue
  target:non-target ratio: 7.5
TSPO [3]; stroke tissue, blocking with LW223 10 μM
  % specific binding (% SB): 42.5±7.0%
